Measurements reported in publication PMC12155096 (International Journal of Molecular Sciences, 2025).
Structures can show the parent of a compound that is named as a salt.

Tests used:
human CYP1A2 = molecular target: T1, human CYP1A2 (Homo sapiens, UniProt P05177)
T1 sequence (P05177 1-516): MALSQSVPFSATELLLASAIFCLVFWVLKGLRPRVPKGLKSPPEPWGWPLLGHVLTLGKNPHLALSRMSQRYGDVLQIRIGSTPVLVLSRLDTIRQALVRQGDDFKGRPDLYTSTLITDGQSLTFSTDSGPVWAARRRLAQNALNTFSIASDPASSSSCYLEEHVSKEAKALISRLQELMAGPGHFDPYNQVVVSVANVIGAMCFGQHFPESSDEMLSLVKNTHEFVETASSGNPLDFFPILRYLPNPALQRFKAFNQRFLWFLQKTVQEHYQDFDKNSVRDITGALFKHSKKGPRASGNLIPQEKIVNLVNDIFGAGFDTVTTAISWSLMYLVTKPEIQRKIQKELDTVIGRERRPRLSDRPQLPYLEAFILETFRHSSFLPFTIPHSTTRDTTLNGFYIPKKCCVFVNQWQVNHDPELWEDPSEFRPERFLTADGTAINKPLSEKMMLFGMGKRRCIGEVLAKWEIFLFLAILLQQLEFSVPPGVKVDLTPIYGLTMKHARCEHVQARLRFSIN

human CYP2C9 = human CYP2C9 (Homo sapiens, UniProt P11712)
human CYP2C9, sequence (P11712 whole entry): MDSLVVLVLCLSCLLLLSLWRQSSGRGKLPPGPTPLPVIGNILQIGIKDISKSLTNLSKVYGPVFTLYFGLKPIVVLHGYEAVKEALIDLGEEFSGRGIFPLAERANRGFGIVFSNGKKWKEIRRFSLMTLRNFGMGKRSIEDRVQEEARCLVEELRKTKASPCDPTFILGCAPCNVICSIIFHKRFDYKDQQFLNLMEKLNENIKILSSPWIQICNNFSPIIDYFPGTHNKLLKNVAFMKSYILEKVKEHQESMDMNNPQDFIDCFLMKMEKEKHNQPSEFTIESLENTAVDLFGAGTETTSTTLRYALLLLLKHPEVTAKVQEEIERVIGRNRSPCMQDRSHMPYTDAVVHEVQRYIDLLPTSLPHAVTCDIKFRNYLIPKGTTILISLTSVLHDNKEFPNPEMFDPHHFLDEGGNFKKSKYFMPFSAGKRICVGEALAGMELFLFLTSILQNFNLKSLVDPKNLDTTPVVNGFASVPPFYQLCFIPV

human CYP2C19 = human CYP2C19 (Homo sapiens, UniProt P33261)
human CYP2C19, sequence (P33261 whole entry): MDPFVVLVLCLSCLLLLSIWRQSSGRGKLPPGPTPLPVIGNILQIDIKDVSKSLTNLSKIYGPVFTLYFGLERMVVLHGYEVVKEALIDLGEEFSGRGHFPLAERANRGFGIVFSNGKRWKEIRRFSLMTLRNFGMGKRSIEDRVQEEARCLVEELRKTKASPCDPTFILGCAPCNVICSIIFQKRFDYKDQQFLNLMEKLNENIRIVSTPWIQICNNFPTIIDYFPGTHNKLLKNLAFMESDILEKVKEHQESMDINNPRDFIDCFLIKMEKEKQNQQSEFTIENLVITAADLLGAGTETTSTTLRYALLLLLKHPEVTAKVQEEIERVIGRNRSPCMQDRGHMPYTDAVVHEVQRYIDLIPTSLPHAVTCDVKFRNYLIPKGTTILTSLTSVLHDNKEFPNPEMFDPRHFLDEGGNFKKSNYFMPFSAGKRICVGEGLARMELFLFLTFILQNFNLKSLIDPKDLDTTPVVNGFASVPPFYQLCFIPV

human CYP2D6 = human CYP2D6 (Homo sapiens, UniProt P10635)
human CYP2D6, sequence (P10635 whole entry): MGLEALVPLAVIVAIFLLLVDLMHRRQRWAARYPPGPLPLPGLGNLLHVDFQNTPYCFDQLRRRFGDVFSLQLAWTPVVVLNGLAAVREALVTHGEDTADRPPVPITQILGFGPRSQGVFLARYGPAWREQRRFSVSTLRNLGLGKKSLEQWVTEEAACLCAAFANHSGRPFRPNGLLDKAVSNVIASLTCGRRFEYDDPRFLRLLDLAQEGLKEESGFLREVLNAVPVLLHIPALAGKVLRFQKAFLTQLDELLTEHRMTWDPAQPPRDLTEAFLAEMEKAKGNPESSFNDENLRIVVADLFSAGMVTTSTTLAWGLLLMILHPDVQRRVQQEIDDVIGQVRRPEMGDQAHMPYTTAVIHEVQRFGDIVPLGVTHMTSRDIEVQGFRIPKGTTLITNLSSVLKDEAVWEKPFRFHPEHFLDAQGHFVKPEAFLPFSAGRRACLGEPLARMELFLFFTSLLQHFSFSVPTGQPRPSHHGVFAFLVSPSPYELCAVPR

CYP3A4 = CYP3A4 (Homo sapiens, UniProt P08684)
CYP3A4, sequence (P08684 whole entry): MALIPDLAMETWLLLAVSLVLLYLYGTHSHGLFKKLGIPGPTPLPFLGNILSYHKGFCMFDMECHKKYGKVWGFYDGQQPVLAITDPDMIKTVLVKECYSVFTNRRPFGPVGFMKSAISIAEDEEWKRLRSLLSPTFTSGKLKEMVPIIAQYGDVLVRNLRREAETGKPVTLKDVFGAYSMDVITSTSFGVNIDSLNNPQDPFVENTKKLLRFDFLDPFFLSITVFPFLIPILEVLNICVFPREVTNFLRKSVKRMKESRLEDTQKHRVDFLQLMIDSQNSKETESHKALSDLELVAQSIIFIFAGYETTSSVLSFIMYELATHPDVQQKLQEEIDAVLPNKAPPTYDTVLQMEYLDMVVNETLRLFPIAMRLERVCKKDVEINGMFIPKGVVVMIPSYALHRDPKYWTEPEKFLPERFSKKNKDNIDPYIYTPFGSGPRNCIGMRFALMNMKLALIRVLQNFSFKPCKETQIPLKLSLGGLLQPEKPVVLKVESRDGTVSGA

Compound	CYP1A2 AC50 (half-maximal activity concentration) (human CYP1A2)	CYP2C9 AC50 (half-maximal activity concentration) (human CYP2C9)	CYP2C19 AC50 (half-maximal activity concentration) (human CYP2C19)	CYP2D6 AC50 (half-maximal activity concentration) (human CYP2D6)	AC50 (CYP3A4) [µM]	AC50 (human CYP2C9) [µM]	AC50 (human CYP2C19) [µM]	CYP3A4 AC50 (half-maximal activity concentration) (CYP3A4)	AC50 (human CYP1A2) [µM]	AC50 (human CYP2D6) [µM]
O=C(Cl)c1cc(Cl)cc(Cl)c1 [3,5-Dichlorobenzoyl chloride]	Inactive	Inconclusive inhibitor	Inconclusive inhibitor	Inactive	50.2					
OCC(CBr)(CBr)CBr [3-Bromo-2,2-bis(bromomethyl)propanol]	Inactive			Inactive		40.5	38.3	Inactive		
O=C(Cl)c1ccc(F)c(Cl)c1 [3-Chloro-4-fluorobenzoyl chloride]	Inactive	Inactive	Inconclusive inhibitor	Inconclusive inhibitor	55.5					
O=C(c1ccccc1)c1cccc(O)c1 [3-Hydroxybenzophenone]						3.99	23.9	Inactive	36.2	54.1
OCc1cccc(Oc2ccccc2)c1 [3-Phenoxybenzenemethanol]				Inconclusive inhibitor	64.4	55.8	24.7		38.5	
O=C(C=Cc1ccccc1)OCCCc1ccccc1 [3-Phenylpropyl cinnamate]				Inactive	25.2	19.4	30.1		12.2	
CCCCCCCCCCCSCC(=O)O [3-Thiatetradecanoic acid]	Inconclusive inhibitor		Inconclusive inhibitor		87.3	45.2				20.6
Nc1ccc([N+](=O)[O-])c(C(F)(F)F)c1 [3-Trifluoromethyl-4-nitroanilide]				Inactive		39.1	12.9	Inactive	8.83	
CC(C)(C)c1ccc(C(=O)CCCCl)cc1 [4'-Tert-butyl-4-chlorobutyrophenone]		Inactive	Inactive	Inactive	21.9				12	
O=C(Nc1ccc([N+](=O)[O-])cc1)Nc1ccc([N+](=O)[O-])cc1 [4,4'-Dinitrodiphenylurea]	Inactive	Inactive	Inactive	Inactive	11					
CCC(C)(C)C1CCC(O)CC1 (centres unmarked) [4-(2-Methylbutan-2-yl)cyclohexanol]	Inconclusive inhibitor	Inactive	Inactive	Inactive	9.66					
CCN(CC)c1ccc(C=O)c(O)c1 [4-(Diethylamino)salicylaldehyde]				Inactive		22.8	50.6	Inactive	16.4	
CC(C)CC(O)Cc1ccccc1 (centres unmarked) [4-Methyl-1-phenyl-2-pentanol]		Inconclusive inhibitor		Inactive	34.3		37		37	
O=C1OC(=O)c2cc(Oc3ccc4c(c3)C(=O)OC4=O)ccc21 [5,5'-Oxybis(2-benzofuran-1,3-dione)]	Inactive	Inactive	Inconclusive inhibitor	Inactive	30.8					
CCc1cnc(C(=O)O)c(C(=O)O)c1 [5-Ethyl-2,3-pyridinedicarboxylic acid]	Inactive	Inactive	Inactive	Inconclusive inhibitor	20.6					
Cc1ccc([N+](=O)[O-])c(N)c1 [5-Methyl-2-nitroaniline]				Inactive	13.9	49.9	39.6		19.2	

Compound	CYP1A2 AC50 (half-maximal activity concentration) (human CYP1A2)	CYP2C9 AC50 (half-maximal activity concentration) (human CYP2C9)	CYP2C19 AC50 (half-maximal activity concentration) (human CYP2C19)	CYP2D6 AC50 (half-maximal activity concentration) (human CYP2D6)	AC50 (CYP3A4) [µM]	AC50 (human CYP2C9) [µM]	AC50 (human CYP2C19) [µM]	CYP3A4 AC50 (half-maximal activity concentration) (CYP3A4)	AC50 (human CYP1A2) [µM]	AC50 (human CYP2D6) [µM]
O=C(O)c1cc(C(=O)O)cc([N+](=O)[O-])c1 [5-Nitroisophthalic acid]	Inconclusive inhibitor	Inactive	Inconclusive activator	Inactive	5.59					
CC(C)c1ccc2ncccc2c1 [6-(1-Methylethyl)quinoline]		Inactive	Inactive	Inactive	35				46.2	
CCN(CC)c1ccc2c(C)cc(=O)oc2c1 [7-Diethylamino-4-methylcoumarin]					32.4	4.6	36		1.9	58.5
N#CCc1ccc(Cl)cc1Cl [(2,4-Dichlorophenyl)acetonitrile]		Inactive		Inactive	13.3		50.4		23.4	
CCCCCC[C@@H](CCC)C(=O)O [(2R)-2-Propyloctanoic acid]	Inactive		Inconclusive activator	Inactive	31	34.7				
CCOC(=O)CC(CC(=O)OCC)(OC(C)=O)C(=O)OCC [Acetyltriethyl citrate]	Inconclusive inhibitor			Inactive	43.5	30.6	18.1			
CCCCCCCCCCCCCCCCC(C(=O)O)C(O)(CC(=O)O)C(=O)O (centres unmarked) [Agaric acid]	Inactive	Inactive	Inconclusive activator	Inconclusive inhibitor	32.4					
CC1(C)[C@@H](O[C@H]2O[C@H](C(=O)O)[C@@H](O)[C@H](O)[C@H]2O[C@@H]2O[C@H](C(=O)O)[C@@H](O)[C@H](O)[C@H]2O)CC[C@]2(C)[C@H]3C(=O)C=C4[C@@H]5C[C@@](C)(C(=O)O)CC[C@]5(C)CC[C@@]4(C)[C@]3(C)CC[C@@H]12.N.O.O.O [Ammonium glycyrrhizinate trihydrate]	Inconclusive inhibitor	Inactive	Inconclusive inhibitor	Inactive	23.5					
C[As+](C)(C)CC(=O)[O-] [Arsenobetaine]	Inactive	Inactive	Inactive	Inactive	47.7					
CCCCC(CC)C(=O)[O-].CCCCC(CC)C(=O)[O-].[Ba+2] (centres unmarked) [Barium bis(2-ethylhexanoate)]	Inactive	Inactive	Inactive	Inactive	38.5					
CC(=O)OC(C(=O)c1ccccc1)c1ccccc1 (centres unmarked) [Benzoin acetate]					34.5	33.2	10.1		46.5	59.5
O=C(Cc1ccccc1)OCc1ccccc1 [Benzyl phenylacetate]					11.5	35.8	13.5		12.7	66.3
C/C=C(\C)C(=O)OCc1ccccc1 [Benzyl tiglate]		Inactive	Inconclusive inhibitor	Inactive	39				37	
C=C(C)C(=O)OCC(O)COc1ccc(C(C)(C)c2ccc(OCC(O)COC(=O)C(=C)C)cc2)cc1 (centres unmarked) [Bisphenol A glycidyl methacrylate]					3.3	3.46	7.59		63.5	37
CC(c1ccc(O)cc1)c1ccc(O)cc1 [Bisphenol E]	Inactive			Inactive		38.6	33.5	Inconclusive inhibitor		
